Measured values from patent US20230263822A1, “MODULATION OF FACTOR 11 EXPRESSION” (Ionis Pharmaceuticals, Inc., priority 2008, published 2023).
Strand notation (5' to 3'): a small letter for the sugar, then the base; units joined by * are phosphorothioate-linked, units joined directly phosphodiester-linked; [ ] holds rarer units or linkages, { } end groups; capitals alone tell only the bases. e = 2'-O-(2-methoxyethyl) (MOE); [5mC] = 5-methylcytosine; d = 2'-deoxy (DNA)

What was measured:
[1] = parameters: species or system CD1 mice; details: mouse, in vivo, sc, 50 mg/kg
Experimental: The concentration of the full-length oligonucleotide was measured. The method used is a modification of previously published methods (Leeds et al., 1996; Geary et al., 1999) which consist of a phenol-chloroform (liquid-liquid) extraction followed by a solid phase extraction. An internal standard (ISIS 355868, a 27-mer 2′-O-methoxyethyl modified phosphorothioate oligonucleotide, […], designated herein as SEQ ID NO: 270) was added prior to extraction. […] The results are presented in Table 85 expressed as μg/g liver tissue.

human Factor 11 mRNA = assay: Antisense inhibition of human Factor 11 in HepG2 cells, lipofectin, 75 nM (Example 1); assay type: cell-based; details: 75 nM antisense oligonucleotide, ~24 h, relative to untreated control cells, gapmers targeted to SEQ ID NO: 1
Procedure, shortened: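 HepG2 cells transfected via lipofectin with 75 nM antisense oligonucleotide (5-10-5 MOE gapmers, 20-mers, phosphorothioate, 5-methylcytidines), treated ~24 h. Factor 11 mRNA quantified by real-time PCR, normalised to RIBOGREEN total RNA; percent inhibition versus untreated cells.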

[2] = Tolerability in Sprague-Dawley rats: hematology assays (Example 35); details: 50 mg/kg s.c. twice per week for 6 weeks; for HCT / MCH / MCHC / MCV: title says % control
[3] = Tolerability in Sprague-Dawley rats: liver function (Example 35); details: plasma, 50 mg/kg s.c. twice per week for 6 weeks
[4] = Bleeding assay, Surgicutt Jr. device (Example 45); assay type: in vivo, cynomolgus monkeys; parameters: unit not given here
Experimental: Groups, each consisting of two male and three female monkeys, were injected subcutaneously with ISIS 416838, ISIS 416850, ISIS 416858, ISIS 416864, or ISIS 417002 in escalating doses. Antisense oligonucleotide was administered to the monkeys at 5 mg/kg three times per a week for week 1; 5 mg/kg twice per week for weeks 2 and 3; 10 mg/kg three times per week for week 4; 10 mg/kg twice per week for weeks 5 and 6; 25 mg/kg three times per week for week 7; and 25 mg/kg twice per week for weeks 8, 9, 10, 11, and 12. One control group, consisting of two male and three female monkeys, was injected subcutaneously with PBS according to the same dosing regimen. An additional experimental group, consisting of two male and three female monkeys, was injected subcutaneously with ISIS 416850 in a chronic, lower dose regimen. Antisense oligonucleotide was administered to the monkeys at 5 mg/kg three times per week for week 1; 5 mg/kg twice per week for week 2 and 3; 10 mg/kg three times per week for week 4; and 10 mg/kg twice per week for weeks 5 to 12. Body weights were measured weekly. Blood samples were collected 14 days and 5 days before the start of treatment and subsequently once per week for Factor 11 protein activity analysis in plasma, fibrinogen measurement, PT and aPTT measurements, bleeding times, and measurement of various hematologic factors. On day 85, the monkeys were euthanized by exsanguination while under deep anesthesia, and organs harvested for further analysis.
On different days during the treatment period, bleeding assay was performed using a Surgicutt Jr. device (ITC, New Jersey). Monkeys were placed in monkey chair with their arm placed in a steady support. The arm was lightly shaved and a sphygmomanometer was placed on the upper arm. The cuff of the sphygmomanometer was inflated to 40 mm Hg and this pressure was maintained throughout the procedure. The area on the upper arm to be incised was cleansed with an antiseptic swab and the Surgicutt Jr device was used to make an incision over the lateral aspect, volar surface of the forearm, parallel to and 5 cm below the antecubital crease. At the exact moment the incision was made, a stopwatch was started. Every 30 seconds, blood from the incision was blotted out using a blotting paper without directly touching the incision, so that formation of the platelet plug was not disturbed. Blood was blotted out every 30 seconds until blood no longer stained the paper. The stopwatch was then stopped and the bleeding time determined. The sphygmomanometer was removed from the animal's arm, the incision site was antiseptically swabbed and a wound closure strip applied. The ISIS oligonucleotide, ISIS 416850, given with the chronic dose regimen is distinguished from the other oligonucleotides with an asterisk (*).

[5] = Tolerability in Sprague-Dawley rats: hematology assays (Example 44); assay type: in vivo; details: 50 mg/kg s.c. twice per week for 6 weeks, blood
[6] = Tolerability in CD1 mice: body weight and organ weight (Example 43); assay type: in vivo; details: 50 mg/kg s.c. twice per week for 6 weeks, at the end of the study
Description: The body weights of the mice taken at the end of the study are presented in Table 104 and are expressed in grams.

[7] = day 15, escalating dose regimen
[8] = day 22, escalating dose regimen
[9] = day 36, escalating dose regimen
[10] = day 43, escalating dose regimen
[11] = day 57, escalating dose regimen
[12] = day 64, escalating dose regimen
[13] = day 78, escalating dose regimen
[14] = day 85, escalating dose regimen
[15] = day −5, escalating dose regimen
[16] = day −14, escalating dose regimen

Row | Substance | Half-Life in the liver [1] [days] | % inhibition (human Factor 11 mRNA) [%] | Platelets [2] | RBC [2] | WBC [2] [nL⁻¹] | lymphocytes [2] [%] | monocytes [2] [%] | neutrophils [2] [%] | HCT [2] [%] | MCH [2] | MCHC [2] [%] | MCV [2] | ALT [3] [IU/L] | AST [3] [IU/L] | Albumin [3] | Bilirubin [3] [mg/dL] | bleeding time [4, 7] | bleeding time [4, 8] | bleeding time [4, 9] | bleeding time [4, 10] | further results
1 | 412223 (antisense ACAGTTTCTGGCAGGCCTCG; 5-10-5 MOE gapmer, further chemistry not given here) [compound 412223] | 21.9 | 84 |  |  |  |  |  |  |  |  |  |  |  |  |  |  |  |  |  |  | 
2 | 413482 (antisense GGACGGCATTGGTGCACAGT; 5-10-5 MOE gapmer, further chemistry not given here) [compound 413482] | 19.5 | 85 |  |  |  |  |  |  |  |  |  |  |  |  |  |  |  |  |  |  | 
3 | ISIS 416850: MOE gapmer, nucleobases 1275 to 1318 of SEQ ID NO: 1 (Table 8) (antisense TGCACAGTTTCTGGCAGGCC; MOE gapmer, wing and gap sizes not given here) |  |  | 26 10^3/μL | 7 | 16 | 8 | 11 | 48 | 5 | 4 | 2 | 3 | 80 | 5 | 4 | 1 | 165 | 151 | 137 | 216 | bleeding time ([4]; day 15, chronic dose regimen (*)): 149; bleeding time ([4]; day 22, chronic dose regimen (*)): 143; bleeding time ([4]; day 36, chronic dose regimen (*)): 221; bleeding time ([4]; day 43, chronic dose regimen (*)): 156; bleeding time [4, 11]: 195; bleeding time [4, 12]: 201; bleeding time [4, 13]: 203; bleeding time [4, 14]: 201; bleeding time ([4]; day −5, chronic dose regimen (*)): 93; bleeding time [4, 15]: 127; bleeding time ([4]; day −14, chronic dose regimen (*)): 177; bleeding time [4, 16]: 172
4 | ISIS 449708: 3-8-3, 4-8-4, 2-10-2, 3-10-3 or 4-10-4 MOE microwalk gapmer (Table 46) (antisense eA*e[5mC]*eA*dG*dT*dT*dT*d[5mC]*dT*dG*dG*e[5mC]*eA*eG) |  |  |  |  |  |  |  |  |  |  |  |  |  |  |  |  |  |  |  |  | Platelets [5]: 925 nL⁻¹; RBC [5]: 6.6 pL⁻¹; WBC [5]: 22 nL⁻¹; hematocrit [5]: 40%; hemoglobin [5]: 12.2 g/dL; lymphocytes [5]: 92%; monocytes [5]: 2%; neutrophils [5]: 6%; body weight [6]: 40 g
5 | ISIS 416858: MOE gapmer, nucleobases 1275 to 1318 of SEQ ID NO: 1 (Table 8) (antisense ACGGCATTGGTGCACAGTTT; MOE gapmer, wing and gap sizes not given here) |  |  | 19 10^3/μL | 2 | 28 | 3 | 10 | 20 | 3 | 2 | 1 | 2 | 13 | 4 | 2 | 4 | 146 | 100 | 206 | 111 | bleeding time [4, 11]: 138; bleeding time [4, 12]: 113; bleeding time [4, 13]: 186; bleeding time [4, 14]: 191; bleeding time [4, 15]: 149; bleeding time [4, 16]: 154
6 | 412225 (antisense GCAGCGGACGGCATTGGTGC; 5-10-5 MOE gapmer, further chemistry not given here) [compound 412225] | 20.7 | 86 |  |  |  |  |  |  |  |  |  |  |  |  |  |  |  |  |  |  | 
7 | ISIS 417002: MOE gapmer, nucleobases 1275 to 1318 of SEQ ID NO: 1 (Table 8) (antisense GGTGCACAGTTTCTGGCAGG; MOE gapmer, wing and gap sizes not given here) |  |  | 7 10^3/μL | 5 | 23 | 4 | 25 | 22 | 7 | 3 | 5 | 7 | 44 | 11 | 3 | 12 | 174 | 194 | 186 | 120 | bleeding time [4, 11]: 206; bleeding time [4, 12]: 146; bleeding time [4, 13]: 163; bleeding time [4, 14]: 182; bleeding time [4, 15]: 175; bleeding time [4, 16]: 185
8 | 412206 (antisense e[5mC]*e[5mC]*eG*eT*eG*d[5mC]*dA*dT*d[5mC]*dT*dT*dT*d[5mC]*dT*dT*eG*eG*e[5mC]*eA*eT) [compound 412206] |  | 87 |  |  |  |  |  |  |  |  |  |  |  |  |  |  |  |  |  |  | 
9 | 412224 (antisense GCATTGGTGCACAGTTTCTG; 5-10-5 MOE gapmer, further chemistry not given here) [compound 412224] | 16.6 | 87 |  |  |  |  |  |  |  |  |  |  |  |  |  |  |  |  |  |  | 
10 | ISIS 416864: MOE gapmer, nucleobases 1275 to 1318 of SEQ ID NO: 1 (Table 8) (antisense GGCAGCGGACGGCATTGGTG; MOE gapmer, wing and gap sizes not given here) |  |  | 12 10^3/μL | 4 | 15 | 2 | 29 | 26 | 2 | 2 | 4 | 4 | 471 | 68 | 4 | 3 | 153 | 133 | 205 | 146 | bleeding time [4, 11]: 216; bleeding time [4, 12]: 218; bleeding time [4, 13]: 170; bleeding time [4, 14]: 203; bleeding time [4, 15]: 111; bleeding time [4, 16]: 166
11 | ISIS 416838: MOE gapmer, nucleobases 1018 to 1042 of SEQ ID NO: 1 (Table 6) (antisense GCAACCGGGATGATGAGTGC; MOE gapmer, wing and gap sizes not given here) |  |  | 27 10^3/μL | 4 | 13 | 3 | 6 | 17 | 5 | 2 | 5 | 4 | 5 | 2 | 2 | 4 | 167 | 165 | 166 | 120 | bleeding time [4, 11]: 238; bleeding time [4, 12]: 131; bleeding time [4, 13]: 145; bleeding time [4, 14]: 201; bleeding time [4, 15]: 150; bleeding time [4, 16]: 200
12 | 416856 (antisense GGCATTGGTGCACAGTTTCT; 5-10-5 gapmer, further chemistry not given here) [compound 416856] | 19.2 |  |  |  |  |  |  |  |  |  |  |  |  |  |  |  |  |  |  |  | 
